In PubChem BioAssay (NCI):
Values joined by “and” are separate entries in the source; they are usually repeats but may differ in a detail not shown here. Equal values may be shown once.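 Values below derive from 48-hour exposures of cells grown in 96-well plates, with endpoints linearly interpolated between the two concentrations bracketing the appropriate inhibition level. GI50 = concentration required for 50% inhibition of growth. TGI: total growth inhibition.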

Columns and labels:
Test in all cases: NCI-60 cell line screen, 48 h
HL-60(TB) leukemia = test system: HL-60(TB) leukemia
TK-10 renal = test system: TK-10 renal
NCI-H522 lung = test system: NCI-H522 lung
NCI-H460 lung = test system: NCI-H460 lung
KM12 colon = test system: KM12 colon
OVCAR-3 ovarian = test system: OVCAR-3 ovarian
ACHN renal = test system: ACHN renal
DU-145 prostate = test system: DU-145 prostate
BT-549 breast = test system: BT-549 breast
T-47D breast = test system: T-47D breast
HOP-62 NSCLC = test system: HOP-62 NSCLC
PC-3 prostate = test system: PC-3 prostate
CAKI-1 renal = test system: CAKI-1 renal
MDA-MB-231 breast = test system: MDA-MB-231 breast

Structure (SMILES) | TGI (HL-60(TB) leukemia) [µM] | TGI (TK-10 renal) | TGI (NCI-H522 lung) [µM] | TGI (NCI-H460 lung) [µM] | TGI (KM12 colon) [µM] | TGI (OVCAR-3 ovarian) [µM] | TGI (ACHN renal) [µM] | TGI (DU-145 prostate) [µM] | TGI (BT-549 breast) [µM] | TGI (T-47D breast) [µM] | TGI (HOP-62 NSCLC) | TGI (PC-3 prostate) | TGI (CAKI-1 renal) [µM] | TGI (MDA-MB-231 breast) | GI50 (TK-10 renal) | GI50 (HOP-62 NSCLC) | GI50 (MDA-MB-231 breast) | GI50 (ACHN renal)
C/C(=C1/CCC/C(=C(/C)c2ccccc2)C1=O)c1ccccc1 | 27.9 | > 100 µM | > 100 | > 100 | > 100 | > 100 | > 100 |  |  |  |  |  |  |  |  |  |  | 
COC(=O)C(NC(=O)c1ccccc1)c1ccco1 (stereo not given) | > 100 | > 100 µM |  | > 100 | > 100 | > 100 | > 100 | > 100 | > 100 | > 100 | > 100 µM | > 100 µM |  |  |  |  |  | 
CCOC(=O)C1(C(=O)OCC)C[C@H](C)[C@](C)(O)C1 | > 100 | > 100 µM | > 100 | > 100 | > 100 | > 100 | > 100 | > 100 |  |  | > 100 µM | > 100 µM | > 100 | > 100 µM |  |  |  | 
COc1ccc(N2C(=O)c3cc(C)cnc3S2(=O)=O)cc1 | > 100 | > 100 µM | > 100 | > 100 | > 100 | > 100 | > 100 | > 100 | > 100 |  | > 100 µM | > 100 µM |  | > 100 µM |  |  |  | 
CCc1c(C)c(C#N)c(=S)n(C2OC(COC(C)=O)C(OC(C)=O)C(OC(C)=O)C2OC(C)=O)c1C (stereo not given) | > 100 | > 100 µM and 69.4 µM | > 100 | > 100 | > 100 | > 100 | > 100 | > 100 |  | > 100 | > 100 µM and 21.8 µM | > 100 µM and 27.9 µM | > 100 | > 100 µM and 73.9 µM | 92.8 µM and 26.3 µM | 45.4 µM and 5.33 µM | > 100 µM and 13 µM | > 100 µM and 18.9 µM
CNc1nc2n(CCO)c(-c3ccccc3)c(-c3ccccc3)nc-2c(=O)n1 |  | > 50 µM | > 50 | > 50 | > 50 | > 50 | > 50 | > 50 | > 50 | > 50 | > 50 µM | > 50 µM | > 50 | > 50 µM |  |  |  | 
CC(C)=CC(=O)C[C@H]1C(=O)O[C@@H]2C[C@H]3C(C)=CC(=O)[C@@H](O)[C@]3(C)[C@H]3[C@@]4(O)OC[C@]32[C@@H]1[C@@H](C)[C@H]4O | > 100 | 0.512 µM |  | 0.743 | 12.8 | 0.166 | 0.834 | 0.12 | 0.205 | 0.144 | 1.8 µM | 0.241 µM | > 50.2 | 0.381 µM |  |  |  | 
COC(=O)C1=C(C(=O)OC)c2cc(OC)ccc2C(C(=S)N(C)C)S1 (stereo not given) |  | > 100 µM |  | > 100 | > 100 | > 100 | > 100 | > 100 | > 100 | > 100 | > 100 µM | > 100 µM | > 100 | > 100 µM |  |  |  | 
c1csc(-c2cc(-c3cccs3)c(-c3ccsc3)s2)c1 | > 100 | > 100 µM |  | > 100 | > 100 |  | > 100 | > 100 |  | > 100 | > 100 µM | > 100 µM | > 100 | > 100 µM |  |  |  | 
O=c1[nH]c(Nc2nc3ccccc3[nH]2)nc2c1CCC2 | > 100 | > 100 µM | > 100 | > 100 |  | > 100 | > 100 | > 100 | > 100 |  | > 100 µM | > 100 µM | > 100 | 51.1 µM |  |  |  | 
C=CCc1cc(-c2cc(CC=C)c(O)c(CNCCCl)c2)cc(CNCCCl)c1O | 44.8 | 57.5 µM | 32.8 | 37 | 31.4 | 43.9 | 46.2 |  |  |  | 33.2 µM |  |  |  |  |  |  | 
CSC1=N/C(=C\c2ccccc2)C(=O)N1CN1CCCCC1 |  | > 100 µM | > 100 |  | > 100 | > 100 | > 100 | > 100 |  |  | > 100 µM | > 100 µM |  | > 100 µM |  |  |  | 
O=C1NCCCNCCCNCCCNC(=O)c2cccc1n2 |  | > 100 µM | > 100 | > 100 | > 100 | > 100 | > 100 |  | > 100 |  | > 100 µM | > 100 µM | > 100 | > 100 µM |  |  |  | 
Cc1ccc(N=Nc2c(C)c(C#N)c(=S)n(C3OC(CO)C(O)C(O)C3O)c2C)cc1 (stereo not given) | > 100 | > 100 µM |  | 91.3 | > 100 | 74.4 | > 100 | > 100 | 54.4 | 46 | 84.9 µM | > 100 µM | > 100 | 60 µM |  |  |  | 
N#Cc1c(-c2ccccc2)cc(Nc2cccc(C(F)(F)F)c2)n2c1nc1ccccc12 |  | 17.8 µM | 1.37 | 17.7 | 30.5 | 5.58 | 11.1 | 19.7 | 14.1 | 21.1 | 9.81 µM |  | 13.1 | 9.85 µM |  |  |  | 
COC/C=C\[C@]1(O)CCCC[C@@H]1CC(OC)OC | 81.8 | > 100 µM | > 100 | > 100 | > 100 | > 100 | > 100 | > 100 |  | > 100 | > 100 µM | > 100 µM | > 100 | > 100 µM |  |  |  | 
COc1ccc(C2C3=C(Nc4ncnn42)c2ccccc2OC3c2ccccc2)cc1 (stereo not given) | 8.92 |  |  | > 100 | 76.5 | > 100 | > 100 | > 100 | 41.5 | 59.4 | > 100 µM | > 100 µM | > 100 | > 100 µM |  |  |  | 
Cc1ccc(-c2c3nc(c(-c4ccc(C)cc4)c4ccc([nH]4)c(-c4ccc(OCC5COC(C)(C)O5)cc4)c4nc(c(-c5ccc(C)cc5)c5ccc2[nH]5)C=C4)C=C3)cc1 (stereo not given) |  | > 31.6 µM | > 31.6 | > 31.6 | > 31.6 | > 31.6 | > 31.6 | > 31.6 | > 100 | > 31.6 | > 31.6 µM |  | > 100 | > 31.6 µM |  |  |  | 
